Results reported in ChEMBL document CHEMBL1148780, “Design and evaluation of naphthol- and carbazole-containing fluorescent sigma ligands as potential probes for receptor binding studies” (J Med Chem, 2007).

Assays:
[1] = target: Sigma non-opioid intracellular receptor 1 (Cavia porcellus, UniProt Q60492); test: Displacement of [3H]pentazocine from Sigma1 receptor in guinea pig brain membrane; type: cell membranes
[2] = Displacement of [3H]DTG from sigma2 receptor in Wistar rat liver membrane in presence of 1 uM […]; type: cell membranes
[3] = target: T1, 3-beta-hydroxysteroid-Delta(8),Delta(7)-isomerase (Cavia porcellus, UniProt Q60490); test: Displacement of [3H]emopamil from Delta-(8)-Delta-(7) sterol isomerase in guinea pig liver membrane; type: cell membranes
T1 sequence (Q60490 whole entry): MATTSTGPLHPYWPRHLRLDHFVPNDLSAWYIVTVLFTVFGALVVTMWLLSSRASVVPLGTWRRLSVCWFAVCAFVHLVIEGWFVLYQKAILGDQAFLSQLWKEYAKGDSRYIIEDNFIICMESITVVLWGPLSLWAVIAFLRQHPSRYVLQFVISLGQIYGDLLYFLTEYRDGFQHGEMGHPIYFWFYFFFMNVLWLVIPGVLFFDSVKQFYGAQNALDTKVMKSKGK

[4] = Selectivity for sigma1 receptor over sigma2 receptor
[5] = (§1) Binding affinity to sigma2 receptor in Wistar rat liver membrane; type: cell membranes
Rattus norvegicus = species on record: Rattus norvegicus; test: as §1; type: cell membranes

Sequence of Sigma non-opioid intracellular receptor 1 (Q60492 whole entry): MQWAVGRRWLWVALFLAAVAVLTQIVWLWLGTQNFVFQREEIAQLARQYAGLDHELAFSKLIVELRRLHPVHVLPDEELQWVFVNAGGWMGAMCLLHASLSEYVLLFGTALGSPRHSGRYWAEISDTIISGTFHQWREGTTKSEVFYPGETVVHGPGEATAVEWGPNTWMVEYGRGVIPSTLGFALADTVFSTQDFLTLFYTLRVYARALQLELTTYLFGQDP

`Oc1ccc2cccc(CCCN3CCN(C4CCCCC4)CC3)c2c1` showed a Ki [1] of 5.48 nM, a Ki [2] of 11.8 nM and a Ki [3] of 55 nM. The Ratio Ki [4] was 2.

`COc1ccc2cccc(CCCN3CCN(C4CCCCC4)CC3)c2c1` gave a Ki [1] of 0.9 nM, a Ki [2] of 8.27 nM and a Ki [3] of 42.4 nM. It also gave a Ratio Ki [4] of 9.

For `CC1(C)CCCN(CCCc2cccc3cc(O)ccc23)C1`, the Ki [1] was 340 nM, the Ki [2] was 600 nM and the Ki [3] was 352 nM. For the same compound, the Ratio Ki [4] was 2.

In the case of `COc1ccc2cccc(CCCN3CCCC(C)(C)C3)c2c1`, the Ki [1] is reported as 115 nM, the Ki [2] is reported as 672 nM and the Ki [3] is reported as 4.12 nM. It also gave a Ratio Ki [4] of 6.

With `COc1ccc2c(CCCN3CCCC(C)(C)C3)cccc2c1` the Ratio Ki [4] was 680.

Work on `c1ccc2c(c1)c1ccccc1n2CCCN1CCN(C2CCCCC2)CC1` yielded a Ki [1] of 3450 nM, a Ki [2] of 12.6 nM and a Ki [3] of 79.9 nM. It also gave a Ratio Ki [4] of 0.004.

Work on `CC1(C)CCCN(CCCCCn2c3ccccc3c3ccccc32)C1` yielded a Ki [1] of 138 nM, a Ki [2] of 117 nM and a Ki [3] of 24 nM. It also gave a Ratio Ki [4] of 0.8.

Compound `Oc1ccc2c(CCCN3CCN(C4CCCCC4)CC3)cccc2c1` has a Ki [1] of 6.78 nM, a Ki [2] of 26.4 nM and a Ki [3] of 21.3 nM. For the same compound, the Ratio Ki [4] was 4, the Kd [5] was 21.3 nM and the Bmax (Rattus norvegicus) was 0.47 pmol/mg.

With `COc1cccc2c(CCCN3CCCC(C)(C)C3)cccc12` the Ki [1] was 44.9 nM, the Ki [2] was 643 nM and the Ki [3] was 12.8 nM. It also gave a Ratio Ki [4] of 14.

In the case of `COc1cccc2c(CCCN3CCN(C4CCCCC4)CC3)cccc12`, the Ki [2] is reported as 9.24 nM and the Ki [3] is reported as 4.51 nM.

`COc1ccc2c(CCCN3CCN(C4CCCCC4)CC3)cccc2c1` gave a Ki [1] of 3.16 nM, a Ki [2] of 9.02 nM and a Ki [3] of 7.06 nM. For the same compound, the Ratio Ki [4] was 3.

`CC1(C)CCCN(CCCc2cccc3ccc(O)cc23)C1` gave a Ki [1] of 733 nM, a Ki [2] of 412 nM and a Ki [3] of 30 nM. For the same compound, the Ratio Ki [4] was 0.6.

Compound `CC1(C)CCCN(CCCn2c3ccccc3c3ccccc32)C1` has a Ki [1] of 2020 nM, a Ki [2] of 4480 nM and a Ki [3] of 345 nM. For the same compound, the Ratio Ki [4] was 2.

Compound `CC1(C)CCCN(CCCCn2c3ccccc3c3ccccc32)C1` has a Ki [1] of 175 nM, a Ki [2] of 520 nM and a Ki [3] of 270 nM. It also gave a Ratio Ki [4] of 3.

Compound `Cc1ccccc1NC(=N)Nc1ccccc1C` [DITOLYLGUANIDINE] has a Ki [2] of 30.8 nM.

Compound `CC(C(O)c1ccc(O)cc1)N1CCC(Cc2ccccc2)CC1` (racemic) [IFENPRODIL] has a Ki [3] of 19.8 nM.
